Assay results from patent publication US10231972B2, “Combination of a 6-oxo-1,6-dihydro-pyridazine derivative having anti-cancer activity with a quinazoline derivative” (MERCK PATENT GMBH, priority 2014, dated 2019).

Legend:
Assay type in all cases: in vivo
human H596 tumor cells = assay: Human HGF dependent H596 lung xenograft model; conditions: oral daily; for median tumor volume change: day 14, female humanized HGF SCID mice, s.c. H596, 100 mg/kg pyridazinone, 30 mg/kg (from day 12 20 mg/kg) quinazoline, alone or combined; for median time until tumor progression: progression = TV change >73%, treatment up to 66 days, humanized HGF SCID mice
Excerpt: Background: The human H596 lung model is c-Met expressing paracrine HGF/c-Met tumor model which a juxta-membran (JM) domain mutation of c-Met which lead to prolonged c-Met activation after HGF ligand binding. The model expresses […] with an activated c-Met pathway. This model carries a PI3KCA mutation (literature data).
Method: Female humanized HGF SCID mice (8-10 weeks old) where subcutaneously injected with human H596 tumor cells and were divided into treatment groups (8 animals per group) after the tumors were established.
(§1) Respective groups were administered orally with the 3-(1-{3-[5-(1-Methyl-piperidin-4-ylmethoxy)-pyrimidin-2-yl]-benzyl}-6-oxo-1,6-dihydro-pyridazin-3-yl)-benzonitrile hydrochloride hydrate (100 mg/kg) or 4-[(S)-2-azetidin-1-yl-1-(4-chloro-3-trifluoromethyl-phenyl)-ethylamino]-quinazoline-8-carboxylic acid amide (30 mg/kg, from day 12 20 mg/kg) daily in monotherapy or in combination until tumors progressed or until treatment period of 66 days. At day 14, the day when all animals in the vehicle group were still present, median tumor volume change in % were calculated. Statistical analysis has been done with two way-RM ANOVA. Median time until tumor progression under treatment has been calculated at the end of the study. Tumor progression is defined as tumor volume change >73%.

[1] = system: human NCI-H441 tumor cells; assay: Human NCI-H441 lung xenograft model; conditions: oral daily; for median tumor volume change: day 21, female CD-1 nude mice, s.c. NCI-H441, 100 mg/kg pyridazinone, 30 mg/kg quinazoline, alone or combined; for median time until tumor progression: progression = TV change >73%, treatment up to 78 days, CD-1 nude mice
Experimental: Background: The human NCI-H441 lung model is an c-Met overexpressing tumor model with an activated c-Met pathway. This model carries a kras mutation. Literature data have shown phosphorylation of S6K is present in this tumor model.
as §1, with “Method: Female CD-1 nude mice (6-8 week old) where subcutaneously injected with human NCI-H441 tumor cells and were divided into treatment groups (8 animals per group) after the tumors were established. Respective” for “Respective”, “(30” for “(30 mg/kg, from day 12 20”, “78” for “66”, “21,” for “14,”, “of” for “when all animals in the”, “termination,” for “were still present,”

human U87-MG tumor cells = assay: Human U87-MG xenograft model; conditions: oral daily; for median tumor volume (TV) change: day 12, female CD-1 nude mice, s.c. U87-MG, 100 mg/kg pyridazinone, 30 mg/kg quinazoline, alone or combined; for median time until tumor progression: progression = TV change >73%, treatment up to 65 days, CD-1 nude mice
Experimental: Background: The human U87-MG glioblastoma model is an autocrine HGF/c-Met expressing tumor model with an activated c-Met pathway. This model carries a mutation of PTEN, a negative regulator of the PI3K signaling.
Method: Female CD-1 nude mice (6-8 weeks old) where subcutaneously injected with human U87-MG tumor cells and were divided into treatment groups (8 animals per group) after the tumors were established. Respective groups were administered orally with the 3-(1-{3-[5-(1-Methyl-piperidin-4-ylmethoxy)-pyrimidin-2-yl]-benzyl}-6-oxo-1,6-dihydro-pyridazin-3-yl)-benzonitrile hydrochloride hydrate (100 mg/kg) or 4-[(S)-2-azetidin-1-yl-1-(4-chloro-3-trifluoromethyl-phenyl)-ethylamino]-quinazoline-8-carboxylic acid amide (30 mg/kg) daily in monotherapy or in combination until tumors progressed or until treatment period of 65 days. At day 12, the day of vehicle group termination, median tumor volume (TV) change in % were calculated. Statistical analysis has been done with two way-RM ANOVA. Median time until tumor progression under treatment has been calculated at the end of the study. Tumor progression is defined as tumor volume change >73%.

SMILES | median tumor volume change (human H596 tumor cells) [%] | median time until tumor progression (human H596 tumor cells) [days] | median tumor volume change [1] [%] | median time until tumor progression [1] [days] | median tumor volume (TV) change (human U87-MG tumor cells) [%] | median time until tumor progression (human U87-MG tumor cells) [days]
CN1CCC(COc2cnc(-c3cccc(Cn4nc(-c5cccc(C#N)c5)ccc4=O)c3)nc2)CC1.Cl.O [3-(1-{3-[5-(1-Methyl-piperidin-4-ylmethoxy)-pyrimidin-2-yl]-benzyl}-6-oxo-1,6-dihydro-pyridazin-3-yl)-benzonitrile hydrochloride hydrate] | 35 | 24 | −1 | 67 | −71 | 58
NC(=O)c1cccc2c(N[C@H](CN3CCC3)c3ccc(Cl)c(C(F)(F)F)c3)ncnc12 [4-[(S)-2-Azetidin-1-yl-1-(4-chloro-3-trifluoromethyl-phenyl)-ethylamino]-quinazoline-8-carboxylic acid amide] | 36 | 24 | 138 | 14 | 51 | 14
